Consider 17 compounds from US4507315A, “Hypoglycaemic and hypolipidaemic benzamide substituted (1H-) imidazole derivatives and compositions” (May & Baker Limited, priority 1982, dated 1985).

“And” between values parts separate entries of the source, which are not always exact repeats. Identical values can stand only once.

What all share (type): in vivo
For assay [1], the system named is Male Wistar rats. Nature of the assay: Hypolipidaemic Activity in Rats. The note with it: oral, last 3 days of 10-day cholesterol/cholic acid diet. The procedure:
Male Wistar rats each weighing between 120 and 150 g were caged in groups of eight and fed a pelleted diet incorporating 0.5% w/w cholesterol and 0.25% w/w cholic acid for 10 days. For the last 3 days of that period the test compound was administered orally at a dose of 30, 100 or 200 mg/kg body weight per day in tragacanth mucilage.
At noon on day 10 the animals were killed by inhalation of carbon dioxide from solid carbon dioxide. A sample of blood was removed by cardiac puncture and the serum cholesterol and serum triglycerides were analysed by means of an auto-analyser.
Control group (receiving only doses of unmedicated tragacanth mucilage) were included with each test.
The percentage reductions in the concentrations of serum cholesterol and serum triglycerides were calculated by comparison with the simultaneous controls, for each concentration of the test compound used.

Assay [2] has as its system Diabetic mice (strain C 57, black, MRI derived Obese/Obese). Put plainly: Hypoglycaemic Activity in Diabetic Mice (oral, 3 days). The note with it: for change in blood glucose compared with control / change in vivo at 200 mg/kg: 200 mg/kg body weight per day; for change in vivo at 30 mg/kg: 30 mg/kg body weight per day; for change in vivo at 100 mg/kg: 100 mg/kg body weight per day. The procedure: Diabetic mice (strain C 57, black, MRI derived Obese/Obese) of either sex each weighing between 45 and 70 g were given the test compound orally in tragacanth mucilage at a dose of 5,10,30,100,200 or 500 mg/kg body weight per day for 3 days. Three hours after the last dose the animals were killed with carbon dioxide and bled by cardiac puncture. The blood glucose levels were assessed by the glucose-oxidase method of GOD-Perid. Control groups (given doses of unmedicated tragacanth mucilage) were included with each test. The percentage reduction in the concentration of blood glucose was calculated by comparison with the simultaneous controls, for each of the test compounds used.

The subject of assay [3] is Rats (Sprague-Dawley). Nature of the assay: Hypoglycaemic Activity in Fasted Rats. The settings on record: 100 mg/kg body weight per day, oral, 4 days, fasted male Sprague-Dawley rats. The procedure:
Rats (Sprague-Dawley) of male sex each weighing between 171 and 174 g were given the test compound W hydrochloride orally in tragacanth mucilage at a dose of 100 mg/kg body weight per day for 4 days. Four hours after the third dose the animals were kept without food up to and beyond the fourth dose. Three hours after the last dose the animals were bled from the tail vein. The blood glucose levels were assessed by the glucose-oxidase method of GOD-Perid. Control groups (given doses of unmedicated tragacanth mucilage) were included with each test. The percentage reduction in the concentration of blood glucose was calculated by comparison with the simultaneous controls.

Assay [4] relates to Diabetic mice (strain C 57, black, MRI derived Obese/Obese). Nature of the assay: Hypoglycaemic Activity in Diabetic Mice (oral, 8 days, W hydrochloride). The settings on record: male diabetic mice. The procedure:
Groups of diabetic mice (strain C 57, black, MRI derived Obese/Obese) of male sex of mean weight between 43 and 46 g were given the test compound W hydrochloride orally in tragacanth mucilage at a dose of 2, 5 or 100 mg/kg body weight per day for 8 days. Three hours after the last dose the animals were bled from the tail vein. The blood glucose levels were assessed by the glucose-oxidase method of GOD-Perid. Control groups (given doses of unmedicated tragacanth mucilage) were included with each test. The percentage reduction in the concentration of blood glucose was calculated by comparison with the simultaneous controls.

[5] abbreviates: Mus musculus, po, 72 h, read-out: change in blood glucose compared with control.

As to `O=C(NCCCn1ccnc1)c1ccccc1NS(=O)(=O)c1ccc(Br)cc1` [D, 2-(4-bromobenzenesulphonamido)-N-(3-imidazol-1-ylpropyl)benzamide], in assay [1] (200 mg/kg body weight per day), the “% change in serum cholesterol compared with control” value (from here on “% change in serum cholesterol”) was -63% and the “% change in serum triglycerides compared with control” value (shortened to “% change in serum triglycerides”) is reported as -59%.

As for `O=C(NCCCn1ccnc1)c1ccccc1NS(=O)(=O)c1cccc(C(F)(F)F)c1` [W, 2-(3-trifluoromethylbenzenesulphonamido)-N-(3-imidazol-1-ylpropyl)benzamide], the “change in blood glucose compared with control” value in assay [2] is -68%.

Consider `Cc1ccccc1S(=O)(=O)Nc1ccccc1C(=O)NCCCn1ccnc1` [QQ, 2-(2-methylbenzenesulphonamido)-N-(3-imidazol-1-ylpropyl)benzamide], for which the change in vivo at 200 mg/kg in assay [2] (setting [5]) is -43%.

Consider `Cc1ccc(S(=O)(=O)Nc2ccccc2C(=O)NCCCn2ccnc2)cc1C` [G, 2-(3,4-dimethylbenzenesulphonamido)-N-(3-imidazol-1-ylpropyl)benzamide], for which the change in vivo at 200 mg/kg in assay [2] (setting [5]) was -25%.

Regarding `CC(CCNC(=O)c1ccccc1NS(=O)(=O)c1ccc(Cl)cc1)n1ccnc1` (racemic) [WW, (±)-2-(4-chlorobenzenesulphonamido)-N-(3-imidazol-1-ylbutyl)benzamide], in assay [2] (setting [5]), the change in vivo at 200 mg/kg was -24%.

With `O=C(NCCCn1ccnc1)c1ccccc1NS(=O)(=O)c1ccc(Cl)cc1Cl` [Y, 2-(2,4-dichlorobenzenesulphonamido)-N-(3-imidazol-1-ylpropyl)benzamide], the change in vivo at 200 mg/kg in assay [2] (setting [5]) was -51%.

In the case of `Cl.O=C(NCCCn1ccnc1)c1ccccc1NS(=O)(=O)c1cccc(C(F)(F)F)c1` [W hydrochloride, 2-(3-trifluoromethylbenzenesulphonamido)-N-(3-imidazol-1-ylpropyl)benzamide hydrochloride], the “% change in blood glucose compared with control” value in assay [3] is on record as -26%; in assay [4] (2 mg/kg body weight per day), -25%; in assay [4] (5 mg/kg body weight per day) it was -28%; in assay [4] (100 mg/kg body weight per day), -50%. Further, the “change in blood glucose compared with control” value in assay [2] is -62%. In addition, the change in vivo at 5 mg/kg in assay [2] (Mus musculus, po, 72 h, 5 mg/kg body weight per day, read-out: change in blood glucose compared with control) is -25%. For the same compound, the change in vivo at 10 mg/kg in assay [2] (Mus musculus, po, 72 h, 10 mg/kg body weight per day, read-out: change in blood glucose compared with control) was -29%. In addition, in assay [2] (setting [5]), the change in vivo at 30 mg/kg was -58%. The change in vivo at 100 mg/kg in assay [2] (setting [5]) was -50%. Also, in assay [2] (Mus musculus, po, 72 h, 500 mg/kg body weight per day, read-out: change in blood glucose compared with control), the change in vivo at 500 mg/kg is -46%.

For the compound `O=C(NCCCn1ccnc1)c1cc(Cl)ccc1NS(=O)(=O)c1ccc(Cl)cc1` [I, 5-chloro-2-(4-chlorobenzenesulphonamido)-N-(3-imidazol-1-ylpropyl)benzamide], in assay [2] (setting [5]), the change in vivo at 200 mg/kg was -57%.

For the compound `O=C(NCCCn1ccnc1)c1ccccc1NS(=O)(=O)c1ccc(Cl)cc1` [A, 2-(4-chlorobenzenesulphonamido)-N-(3-imidazol-1-ylpropyl)benzamide], the “% change in serum cholesterol” value in assay [1] (30 mg/kg body weight per day) is -13%; in assay [1] (100 mg/kg body weight per day), -35%; in assay [1] (200 mg/kg body weight per day), -82% and -83%. Besides, the “% change in serum triglycerides” value is on record as “+67%” in assay [1] (30 mg/kg body weight per day) and “+36%” in assay [1] (100 mg/kg body weight per day). Besides, the change in vivo at 30 mg/kg in assay [2] (setting [5]) was -13%. For the same compound, the change in vivo at 100 mg/kg in assay [2] (setting [5]) was -49%.

With `Cc1cn(CCCNC(=O)c2ccccc2NS(=O)(=O)c2ccc(Cl)cc2)cn1` [N, 2-(4-chlorobenzenesulphonamido)-N-[3-(4-methylimidazol-1-yl)propyl]benzamide], the change in vivo at 200 mg/kg in assay [2] (setting [5]) was -48%.

With `O=C(NCCn1ccnc1)c1ccccc1NS(=O)(=O)c1ccc(Cl)cc1` [VV, 2-(4-chlorobenzenesulphonamido)-N-(2-imidazol-1-ylethyl)benzamide], the change in vivo at 200 mg/kg in assay [2] (setting [5]) is -53%.

On to `O=C(NCCCn1ccnc1)c1ccccc1NS(=O)(=O)c1cccc(Cl)c1` [B, 2-(3-chlorobenzenesulphonamido)-N-(3-imidazol-1-ylpropyl)benzamide], for which the change in vivo at 200 mg/kg in assay [2] (setting [5]) was -60%.

On to `O=C(NCCCn1ccnc1)c1ccccc1NS(=O)(=O)c1ccc(F)cc1F` [OO, 2-(2,4-difluorobenzenesulphonamido)-N-(3-imidazol-1-ylpropyl)benzamide], for which the change in vivo at 200 mg/kg in assay [2] (setting [5]) is -35%.

Consider `O=C(NCCCn1ccnc1)c1ccccc1NS(=O)(=O)c1ccc(Cl)c(Cl)c1` [X, 2-(3,4-dichlorobenzenesulphonamido)-N-(3-imidazol-1-ylpropyl)benzamide], for which the change in vivo at 200 mg/kg in assay [2] (setting [5]) was -58%.

With `Cc1ccc(S(=O)(=O)Nc2ccccc2C(=O)NCCCn2ccnc2)cc1` [F, 2-(4-methylbenzenesulphonamido)-N-(3-imidazol-1-yl-propyl)benzamide], in assay [1] (200 mg/kg body weight per day), the “% change in serum cholesterol” value is given as -72% and the “% change in serum triglycerides” value is reported as -60%. For the same compound, the change in vivo at 200 mg/kg in assay [2] (setting [5]) is -32%.

As for `O=C(NCCCn1ccnc1)c1ccccc1NS(=O)(=O)c1ccccc1` [E, 2-(benzenesulphonamido)-N-(3-imidazol-1-ylpropyl)benzamide], in assay [1] (200 mg/kg body weight per day), the “% change in serum cholesterol” value is reported as -31% and the “% change in serum triglycerides” value is given as “+55%”.

Consider `O=C(NCCCn1ccnc1)c1ccccc1NS(=O)(=O)c1cc(Cl)ccc1Cl` [J, 2-(2,5-dichlorobenzenesulphonamido)-N-(3-imidazol-1-ylpropyl)benzamide], for which, in assay [2] (setting [5]), the change in vivo at 200 mg/kg was -42%.
